# In patent US8338565B2, “Macrocyclic compounds for inhibition of tumor necrosis factor alpha” (Ensemble Therapeutics Corporation, priority 2008, dated 2012):
# pIC50: −log10 of the molar value. Read-outs that look alike come from different tables or passages of the source. Numbered stars: 1 amine (or outer) side, 2 acyl side, 3 side chain; on linkers, the order of the positions; unused ones are H or OH. Bridge positions count the residues as written; N and C are the ends. Square brackets hold non-standard residues; d marks the D form. Peptide text beside a SMILES is read from it. Phe(4-(4-pyridyl)) = N[C@@H](Cc1ccc(-c2ccncc2)cc1)C(=O)O; Phe(4-CF3) = N[C@@H](Cc1ccc(C(F)(F)F)cc1)C(=O)O; dPhe(4-NH2) = Nc1ccc(C[C@@H](N)C(=O)O)cc1; Phe(4-NH2) = Nc1ccc(C[C@H](N)C(=O)O)cc1; d(hPhe) = N[C@H](CCc1ccccc1)C(=O)O; Suc = O=C(CCC(=O)[*:2])[*:1]
# Legend:
# [1] = tested on: rat paw edema model; assay: Rat paw edema model (carrageenan), anti-inflammatory activity; type: in vivo, Sprague-Dawley (SD) rats; conditions: Table 8; 3 mg/kg PO; 4 h post-carrageenan
# [2] = tested on: TNF-α (degradation of IkB in HeLa cells or A431 cells); assay: Human cell-based assay: inhibition of TNF-α induced degradation of IkB; conditions: for inhibition at 5 µM: read-out: Inhibition at Various Compound Concentrations, 5 μM; for inhibition at 10 µM: read-out: Inhibition at Various Compound Concentrations, 10 μM
# [3] = molecular target: T1, TNFα / TNFα receptor (TNFα R1/Fc) (Homo sapiens, UniProt P01375); assay: Inhibition of binding of TNFα to the TNFα receptor (plate ELISA competition); conditions: Table 2
# T1 construct: purchased R&D Systems
# T1 sequence (P01375 77-233 limits assumed, species assumed): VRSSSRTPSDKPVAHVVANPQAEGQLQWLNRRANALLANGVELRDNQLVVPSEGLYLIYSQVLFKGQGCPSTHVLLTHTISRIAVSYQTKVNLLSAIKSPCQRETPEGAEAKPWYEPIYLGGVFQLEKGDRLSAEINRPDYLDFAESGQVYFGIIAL
# Outline: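 Compound dilutions were preincubated 30 min at RT with 8.33 nM TNFα R1/Fc in PBST with 2% DMSO, then added to wells coated with 15 nM TNFα for 30 min. Bound receptor was detected with HRP anti-human Fc and TMB, read as A450.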
# [4] = tested on: rat paw edema model; assay: Rat paw edema model (carrageenan), anti-inflammatory activity; type: in vivo, Sprague-Dawley (SD) rats
# Method: Compounds 3, 4, 10 and 202 were tested in a rat paw edema model to determine anti-inflammatory activity. Seven groups (one for Vehicle A [15 mL PEG400, 3 mL Graves Grain alcohol (190 proof), 1.8 mL dimethylacetamide and 10.2 mL deionized water] alone as a negative control, one for Vehicle B [0.1M NaHCO3] alone as a negative control, one for each of the four test compounds dissolved in Vehicle A, and one for indomethacin dissolved in Vehicle B as a positive control), each group containing six Sprague-Dawley (SD) rats (180-200 g) randomized by weight. Initial paw volumes were measured by placing the right hind limb of the rat up to the top of the hock in a beaker of water sitting on a scale that had been tared to zero and recording the readout.
# Rats were pre-treated with either i) one of the test compounds, or ii) a positive or negative control. Vehicle A alone and test compound dissolved in Vehicle A (Compound 3-1.0 mg/kg; Compound 4-0.4 mg/kg; Compound 10-0.5 mg/kg; Compound 202-0.3 mg/kg) were administered by intravenous injection. Vehicle B alone and indomethacin (5 mg/kg in 0.1M NaHCO3) was administered by intraperitoneal injection. Thirty minutes after this pretreatment, rats were anesthetized and injected with 0.1 mL of carrageenan (10 mg/mL in water) in the subplantar region of the right hind foot using a ½ inch 26 gauge needle attached to a 1 cc syringe.
# At 2, 4 and 6 hours post-carrageenan injection, the right hind foot of each rat was measured for paw volume as described above.
# We next investigated the effect of varying intravenous doses of Compound 202 (0.05, 0.10, 0.30, and 1.00 mg/kg) in the same model using the same protocol (6 rats per group). […] We also investigated the affect of oral dosing (10 mg/kg) of Compound 202 in the same model. For oral dosing, a 2.5 mg/mL suspension of Compound 202 was prepared in Vehicle A. Rats were orally administered 4 mL/kg of that suspension.
# [5] = Activity (IC50, inhibition of TNFα binding to TNFα R1/Fc)
# [6] = Table 5, 1 mg/kg IV, 2 h post-carrageenan
# [7] = Table 5, 1 mg/kg IV, 4 h post-carrageenan
# [8] = Table 5, 1 mg/kg IV, 6 h post-carrageenan
# [9] = 5 μM compound, HeLa or A431 cells
# [10] = 10 μM compound, HeLa or A431 cells
# [11] = read-out: Activity (IC50, inhibition of TNFα binding to TNFα R1/Fc)
# [12] = Table 6, 1 mg/kg IV, 2 h post-carrageenan
# [13] = Table 6, 1 mg/kg IV, 4 h post-carrageenan
# [14] = Table 6, 1 mg/kg IV, 6 h post-carrageenan
Compound,"pIC50 [3, 11]",inhibition at 5 µM [2],inhibition at 10 µM [2],"pIC50 [3, 5]","Change in Paw Volume [4, 6]","Change in Paw Volume [4, 7]","Change in Paw Volume [4, 8]","inhibition at 5 µM [2, 9]","inhibition at 10 µM [2, 10]","Change in Paw Volume [4, 12]","Change in Paw Volume [4, 13]","Change in Paw Volume [4, 14]",also measured
O=C1COc2ccc(cc2)C[C@@H](C(=O)NCS(=O)(=O)O)NC(=O)[C@H](CCc2ccccc2)NC(=O)[C@@H](Cc2ccc(-c3ccccc3)cc2)NC(=O)[C@H](Cc2cccs2)N1 [Compound 482],,10 to 50%,10 to 50%,> 5.00,0.73 ± 0.19 mL,0.99 ± 0.34 mL,0.86 ± 0.27 mL,,,,,,"Change in Paw Volume [1]: 1.18 ± 0.10 mL; Change in Paw Volume ([4]; Table 8, 3 mg/kg PO, 2 h post-carrageenan): 1.13 ± 0.15 mL; Change in Paw Volume ([4]; Table 8, 3 mg/kg PO, 6 h post-carrageenan): 1.14 ± 0.10 mL"
O=C1CCC(=O)N[C@H](CCc2ccccc2)C(=O)N[C@@H](Cc2ccc(C(F)(F)F)cc2)C(=O)N[C@H](Cc2ccccc2)C(=O)N[C@@H](C(=O)O)Cc2ccc(cc2)N1 [Compound 3] ([d(hPhe)][Phe(4-CF3)][dF][dPhe(4-NH2)]-OH; linker N-4 via Suc),4.52 to 5.00,,,,,,,< 10%,< 10%,,,,"Change in Paw Volume ([4]; Table 3, 1.0 mg/kg IV, 2 h post-carrageenan): 0.69 ± 0.14 mL; Change in Paw Volume ([4]; Table 3, 1.0 mg/kg IV, 4 h post-carrageenan): 1.16 ± 0.32 mL; Change in Paw Volume ([4]; Table 3, 1.0 mg/kg IV, 6 h post-carrageenan): 1.22 ± 0.31 mL"
O=C1COc2ccc(cc2)C[C@@H](C(=O)N[C@@H](CCc2ccccc2)C(=O)O)NC(=O)[C@H](Cc2ccccc2)NC(=O)[C@@H](Cc2ccc(-c3ccccc3)cc2)NC(=O)[C@H](Cc2cccs2)N1 [Compound 393],,10 to 50%,> 80%,> 5.00,,,,,,1.27 ± 0.07 mL,1.28 ± 0.08 mL,1.42 ± 0.12 mL,"Change in Paw Volume ([4]; Table 4, 1 mg/kg IV, 2 h post-carrageenan): 1.24 ± 0.18 mL; Change in Paw Volume ([4]; Table 4, 1 mg/kg IV, 4 h post-carrageenan): 1.54 ± 0.25 mL; Change in Paw Volume ([4]; Table 4, 1 mg/kg IV, 6 h post-carrageenan): 1.56 ± 0.17 mL"
O=C1CCC(=O)N[C@H](CCc2ccccc2)C(=O)N[C@@H](Cc2ccc(-c3ccncc3)cc2)C(=O)N[C@H](Cc2ccccc2)C(=O)N[C@H](C(=O)O)Cc2ccc(cc2)N1 [Compound 419] ([d(hPhe)][Phe(4-(4-pyridyl))][dF][Phe(4-NH2)]-OH; linker N-4 via Suc),4.52 to 5.00,,,,,,,< 10%,< 10%,,,,"Change in Paw Volume ([4]; Table 8, 1 mg/kg IV, 2 h post-carrageenan): 1.22 ± 0.21 mL; Change in Paw Volume ([4]; Table 8, 1 mg/kg IV, 4 h post-carrageenan): 1.32 ± 0.18 mL; Change in Paw Volume ([4]; Table 8, 1 mg/kg IV, 6 h post-carrageenan): 1.16 ± 0.16 mL"

# Continued, in another order:
"pIC50 [3, 11]",Compound,inhibition at 5 µM [2],inhibition at 10 µM [2],"pIC50 [3, 5]","Change in Paw Volume [4, 6]","Change in Paw Volume [4, 7]","Change in Paw Volume [4, 8]","inhibition at 5 µM [2, 9]","inhibition at 10 µM [2, 10]","Change in Paw Volume [4, 12]","Change in Paw Volume [4, 13]","Change in Paw Volume [4, 14]",also measured
> 5.00,O=C(O)[C@H](Cc1ccccc1)NC(=O)[C@@H]1Cc2ccc(cc2)NC(=O)[C@H](O)[C@@H](O)C(=O)N[C@H](Cc2cccs2)C(=O)N[C@@H](Cc2ccc(-c3ccncc3)cc2)C(=O)N[C@H](Cc2ccccc2)C(=O)N1 [Compound 442],,,,0.86 ± 0.15 mL,1.08 ± 0.16 mL,1.01 ± 0.14 mL,10 to 50%,10 to 50%,,,,
> 5.00,O=C(O)[C@@H]1Cc2ccc(cc2)NC(=O)[C@H](O)[C@@H](O)C(=O)N[C@H](Cc2cccs2)C(=O)N[C@@H](Cc2ccc(-c3ccncc3)cc2)C(=O)N[C@H](Cc2ccccc2)C(=O)N1 [Compound 330],,,,,,,> 80%,10 to 50%,1.20 ± 0.20 mL,1.32 ± 0.17 mL,1.33 ± 0.22 mL,
